Tested on: MCH receptors
Assay: MCH receptor activity class (method not given)
[1] = class by percent of control at 10^-7 M or IC50
[2] = class by percent of control at 10^−7 M or IC50
[3] = class 1-3 by percent of control at 10^-7 M or IC50
[4] = activity class 1-3: percent of control at 10^-7 M or IC50
[5] = MCH receptor, class by percent of control at 10^-7 M or IC50
[6] = MCH receptor activity class 1-3 (percent of control at 10^-7 M or IC50)

CN(C)c1ccnc(N[C@H]2CC[C@@H](CNC(=O)C3c4ccccc4Oc4ccccc43)CC2)n1 [compound 947, N-[(cis-4-{[4-(dimethylamino)pyrimidin-2-yl]amino}cyclohexyl)methyl]-9H-xanthene-9-carboxamide]
class [1]: 1 (Class 1: The value of percent of control at 10^−7 M was less than 40% or the value of IC50 was less than 50 nM.)

Cc1cc(C(=O)N[C@H]2CC[C@@H](Nc3nccc(N(C)C)n3)CC2)ccc1F [compound 299, N-(cis-4-{[4-(dimethylamino)pyrimidin-2-yl]amino}cyclohexyl)-4-fluoro-3-methylbenzamide]
class [1]: 1 (Class 1: The value of percent of control at 10^−7 M was less than 40% or the value of IC50 was less than 50 nM.)

Cc1cnc(N[C@H]2CC[C@@H](NC(=O)C(C)c3ccc(Cl)cc3)CC2)nc1N(C)C (relative stereo) [compound 2874, 2-(4-chlorophenyl)-N-(cis-4-{[4-(dimethylamino)-5-methylpyrimidin-2-yl]amino}cyclohexyl)propanamide]
class [2]: 1 (Class 1: The value of percent of control at 10^−7 M was less than 40% or the value of IC50 was less than 50 nM.)

CCn1c2ccccc2c2cc(CNC[C@H]3CC[C@@H](Nc4cc(N(C)C)c5ccccc5n4)CC3)ccc21 [compound 1152]
class (activity class per percent of control at 10^-7 M or IC50): 3 (Class 3 The value of percent of control at 10^−7 M was more than 60% or the value of IC50 was more than 200 nM.)

COc1cc(OC)cc(C(=O)N[C@H]2CC[C@@H](Nc3nc4c(c(N(C)C)n3)CCCC4)CC2)c1 [compound 512]
class [3]: 1 (Class 1: The value of percent of control at 10^−7 M was less than 40% or the value of IC50 was less than 50 nM.)

Cc1cccc(N(CCC#N)CCN[C@H]2CC[C@@H](Nc3nccc(N(C)C)n3)CC2)c1 [compound 1523]
class [4]: 3 (Class 3 The value of percent of control at 10^−7 M was more than 60% or the value of IC50 was more than 200 nM.)

CN(C)c1nc(N[C@H]2CC[C@@H](NC(=O)c3ccc([N+](=O)[O-])s3)CC2)nc2c1CCCC2 [compound 964]
class [1]: 1 (Class 1: The value of percent of control at 10^−7 M was less than 40% or the value of IC50 was less than 50 nM.)

CN(C)c1nc(N[C@H]2CC[C@@H](CNC(=O)c3ccc(F)c(F)c3)CC2)nc2c1CCCC2 [compound 595]
class [3]: 3 (Class 3 The value of percent of control at 10^−7 M was more than 60% or the value of IC50 was more than 200 nM.)

COc1ccc(NC(=O)[C@H]2CC[C@@H](Nc3ncc(C)c(N(C)C)n3)CC2)cc1 [compound 2786]
class [2]: 3 (Class 3 The value of percent of control at 10^−7 M was more than 60% or the value of IC50 was more than 200 nM.)

CN(C)c1ccnc(NC2CCC(CNC(=O)OCc3ccc([N+](=O)[O-])cc3)CC2)n1 (centres unmarked) [compound 1648]
class [4]: 3 (Class 3 The value of percent of control at 10^−7 M was more than 60% or the value of IC50 was more than 200 nM.)

COc1cc(C(=O)N[C@H]2CC[C@@H](Nc3cc(N(C)C)c4ccccc4n3)CC2)cc(OC)c1O [compound 784]
class [1]: 3 (Class 3 The value of percent of control at 10^−7 M was more than 60% or the value of IC50 was more than 200 nM.)

CC(C)[C@@H]1CC[C@@H](C)C[C@H]1OC(=O)NC[C@H]1CC[C@@H](Nc2cc(N(C)C)c3ccccc3n2)CC1 [compound 1573]
class [4]: 3 (Class 3 The value of percent of control at 10^−7 M was more than 60% or the value of IC50 was more than 200 nM.)

CN(C)c1cc(N[C@H]2CC[C@@H](NC(=O)C3C[C@H]3c3ccccc3)CC2)nc2ccccc12 (some centres unmarked) [compound 46]
class [5]: 3 (Class 3 The value of percent of control at 10^−7 M was more than 60% or the value of IC50 was more than 200 nM.)

Cc1nn(-c2ccccc2)nc1C(=O)N[C@H]1CC[C@@H](Nc2cc(N(C)C)c3ccccc3n2)CC1 [compound 107, N-(cis-4-{[4-(dimethylamino)quinolin-2-yl]amino}cyclohexyl)-5-methyl-2-phenyl-2H-1,2,3-triazole-4-carboxamide]
class [5]: 2 (Class 2: The value of percent of control at 10^−7 M was from 40% to 60% or the value of IC′50 was from 50 nM to 200 nM.)

CCc1cccc(C(C)C)c1NC(=O)NC[C@H]1CC[C@@H](Nc2cc(N(C)C)c3ccccc3n2)CC1 [compound 2376, N-[(cis-4-{[4-(dimethylamino)quinolin-2-yl]amino}cyclohexyl)methyl]-N′-(2-ethyl-6-isopropylphenyl)urea]
class [6]: 1 (Class 1: The value of percent of control at 10^−7 M was less than 40% or the value of IC50 was less than 50 nM.)

COc1cccc(CNC(=O)[C@H]2CC[C@@H](Nc3nc(C)cc(N(C)C)n3)CC2)c1 [compound 2815, cis-4-{[4-(dimethylamino)-6-methylpyrimidin-2-yl]amino}-N-(3-methoxybenzyl)cyclohexanecarboxamide]
class [2]: 1 (Class 1: The value of percent of control at 10^−7 M was less than 40% or the value of IC50 was less than 50 nM.)

CN(C)c1nc(N[C@H]2CC[C@@H](CNC(=O)Nc3c(Cl)cccc3Cl)CC2)nc2c1CCCC2 [compound 2491, N-(2,6-dichlorophenyl)-N′-[(cis-4-{[4-(dimethylamino)-5,6,7,8-tetrahydroquinazolin-2-yl]amino}cyclohexyl)methyl]urea]
class [1]: 1 (Class 1: The value of percent of control at 10^−7 M was less than 40% or the value of IC50 was less than 50 nM.)

CN(C)c1ccnc(N[C@H]2CC[C@@H](CNCc3cc(C(F)(F)F)ccc3F)CC2)n1 [compound 1274]
class [1]: 3 (Class 3 The value of percent of control at 10^−7 M was more than 60% or the value of IC50 was more than 200 nM.)

Cc1ccc([N+](=O)[O-])cc1NC(=O)N[C@H]1CC[C@@H](Nc2nccc(N(C)C)n2)CC1 [compound 2235]
class [1]: 3 (Class 3 The value of percent of control at 10^−7 M was more than 60% or the value of IC50 was more than 200 nM.)

CCOC(=O)c1cccc(NC(=S)N[C@H]2CC[C@@H](Nc3nc4c(c(N(C)C)n3)CCCC4)CC2)c1 [Example 1773]
class [1]: 3 (Class 3 The value of percent of control at 10^−7 M was more than 60% or the value of IC50 was more than 200 nM.)

COc1ccc(CC(=O)NC[C@H]2CC[C@@H](Nc3nc4c(c(N(C)C)n3)CCCC4)CC2)cc1 [compound 631]
class [1]: 1 (Class 1: The value of percent of control at 10^−7 M was less than 40% or the value of IC50 was less than 50 nM.)

CN(C)c1ccnc(N[C@H]2CC[C@@H](NC(=O)c3ccc(Br)o3)CC2)n1 [compound 833, 5-bromo-N-(cis-4-{[4-(dimethylamino)pyrimidin-2-yl]amino}cyclohexyl)-2-furamide]
class [1]: 1 (Class 1: The value of percent of control at 10^−7 M was less than 40% or the value of IC50 was less than 50 nM.)

CN(C)c1cc(N[C@H]2CC[C@@H](CNC(=O)c3ccc(Cl)s3)CC2)nc2ccccc12 [compound 792]
class [1]: 3 (Class 3 The value of percent of control at 10^−7 M was more than 60% or the value of IC50 was more than 200 nM.)

Cc1cc(N(C)C)nc(NC[C@H]2CC[C@@H](NC(=O)c3cc(Cl)cc(Cl)c3)CC2)n1 [compound 2748]
class [2]: 2 (Class 2: The value of percent of control at 10^−7 M was from 40% to 60% or the value of IC′50 was from 50 nM to 200 nM.)

CN(C)c1cc(N[C@H]2CC[C@@H](CNC(=O)c3cccc(F)c3F)CC2)nc2ccccc12 [compound 228]
class [1]: 3 (Class 3 The value of percent of control at 10^−7 M was more than 60% or the value of IC50 was more than 200 nM.)

Cc1ccccc1NC(=S)N[C@H]1CC[C@@H](Nc2nc3c(c(N(C)C)n2)CCCC3)CC1 [compound 1960]
class [5]: 3 (Class 3 The value of percent of control at 10^−7 M was more than 60% or the value of IC50 was more than 200 nM.)

Cc1cc(N(C)C)nc(NC[C@H]2CC[C@@H](NC(=O)c3ccc(F)c(Cl)c3)CC2)n1 [compound 2746]
class [2]: 3 (Class 3 The value of percent of control at 10^−7 M was more than 60% or the value of IC50 was more than 200 nM.)

Cc1cccc(C(C)C)c1NC(=O)N[C@H]1CC[C@@H](Nc2nc3c(c(N(C)C)n2)CCCC3)CC1 [compound 1679]
class [4]: 2 (Class 2: The value of percent of control at 10^−7 M was from 40% to 60% or the value of IC′50 was from 50 nM to 200 nM.)

CN(C)c1cc(N[C@H]2CC[C@@H](NC(=O)COc3ccccc3[N+](=O)[O-])CC2)nc2ccccc12 [compound 113]
class [5]: 3 (Class 3 The value of percent of control at 10^−7 M was more than 60% or the value of IC50 was more than 200 nM.)

CN(C)c1ccnc(N[C@H]2CC[C@@H](CNC(=O)c3ccc(F)c(F)c3)CC2)n1 [compound 378]
class [1]: 3 (Class 3 The value of percent of control at 10^−7 M was more than 60% or the value of IC50 was more than 200 nM.)

Cc1cc(N(C)C)nc(N[C@H]2CC[C@@H](NC(=O)c3ccc(Cl)c(C(F)(F)F)c3)CC2)n1 [compound 2982]
class [2]: 1 (Class 1: The value of percent of control at 10^−7 M was less than 40% or the value of IC50 was less than 50 nM.)

Cc1cnc(N[C@H]2CC[C@@H](CNC(=O)c3cccc(C(F)(F)F)c3)CC2)nc1N(C)C [compound 2697, N-[(cis-4-{[4-(dimethylamino)-5-methylpyrimidin-2-yl]amino}cyclohexyl)methyl]-3-(trifluoromethyl)benzamide]
class [2]: 1 (Class 1: The value of percent of control at 10^−7 M was less than 40% or the value of IC50 was less than 50 nM.)

Cc1cccc(C(C)(C)C)c1NC(=O)NC[C@H]1CC[C@@H](Nc2nccc(N(C)C)n2)CC1 [compound 2429, N-(2-tert-butyl-6-methylphenyl)-N′-[(cis-4-{[4-(dimethylamino)pyrimidin-2-yl]amino}cyclohexyl)methyl]urea]
class [6]: 1 (Class 1: The value of percent of control at 10^−7 M was less than 40% or the value of IC50 was less than 50 nM.)

CN(C)c1ccnc(N[C@H]2CC[C@@H](NC(=O)c3ccc(Cl)c([N+](=O)[O-])c3)CC2)n1 [compound 245, 4-chloro-N-(cis-4-{[4-(dimethylamino)pyrimidin-2-yl]amino}cyclohexyl)-3-nitrobenzamide]
class [1]: 1 (Class 1: The value of percent of control at 10^−7 M was less than 40% or the value of IC50 was less than 50 nM.)

CN(C)c1nc(N[C@H]2CC[C@@H](CNCc3ccccc3SC(F)(F)F)CC2)nc2c1CCCC2 [compound 1407]
class [1]: 3 (Class 3 The value of percent of control at 10^−7 M was more than 60% or the value of IC50 was more than 200 nM.)

Reference: patent US20050197350A1, “Novel quinoline, tetrahydroquinazoline, and pyrimidine derivatives and methods of treatment related to the use thereof” (TAISHO PHARMACEUTICAL CO., LTD., priority 2003, published 2005)
